Assay results published in patent US9556201B2, “Bicyclic pyridines and analogs as sirtuin modulators” (GLAXOSMITHKLINE LLC, priority 2009, dated 2017).

Molecular target: T1, SIRT1 (Homo sapiens, UniProt Q96EB6)
T1 sequence (Q96EB6 1-747): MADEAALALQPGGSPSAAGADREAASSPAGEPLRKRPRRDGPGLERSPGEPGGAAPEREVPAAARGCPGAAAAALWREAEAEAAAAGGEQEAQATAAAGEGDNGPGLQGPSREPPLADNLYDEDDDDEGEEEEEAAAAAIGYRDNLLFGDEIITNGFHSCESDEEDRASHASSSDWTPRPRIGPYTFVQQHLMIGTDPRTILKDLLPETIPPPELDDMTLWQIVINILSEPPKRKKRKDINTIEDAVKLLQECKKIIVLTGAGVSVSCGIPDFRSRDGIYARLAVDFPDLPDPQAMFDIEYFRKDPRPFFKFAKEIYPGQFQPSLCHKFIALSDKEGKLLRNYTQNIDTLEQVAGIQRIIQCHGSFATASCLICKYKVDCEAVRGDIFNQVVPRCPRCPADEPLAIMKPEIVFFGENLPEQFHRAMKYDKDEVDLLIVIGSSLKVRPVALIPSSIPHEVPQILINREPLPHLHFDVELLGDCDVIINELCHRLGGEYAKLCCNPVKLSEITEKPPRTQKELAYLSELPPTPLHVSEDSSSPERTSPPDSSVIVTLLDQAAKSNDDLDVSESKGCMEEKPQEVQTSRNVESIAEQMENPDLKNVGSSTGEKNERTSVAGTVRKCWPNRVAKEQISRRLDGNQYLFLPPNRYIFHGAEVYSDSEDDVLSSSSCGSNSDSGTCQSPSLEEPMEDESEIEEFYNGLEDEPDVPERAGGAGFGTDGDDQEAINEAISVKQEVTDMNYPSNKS
Experiment: Mass spectrometry based assay to identify modulators of SIRT1 activity (deacetylation of p53-based acetylated peptide substrate)
Assay type: biochemical
Settings: for Emax: 25 min, read-out: % FOLD ACT. (percent maximum fold activation); for Emax / EC1.5: SIRT1 activation
Procedure, shortened: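 Deacetylation of a modified p53 acetyl-lysine peptide ([…], 5TMR-labelled, Nle for Met) by 10 nM N-His SIRT1 with 120 μM βNAD+, pH 8, 25 min, 25 °C. Substrate and product masses measured by MS after formic acid quench; nicotinamide defines maximal inhibition.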

Compound | EC1.5 (concentration giving 1.5-fold activation) | Emax | EC1.5
Cc1cncc(NC(=O)N2CCCOc3ccc(-c4ccnc(C)c4)nc32)c1 [Compound 655] |  | ≤ 200% | B (EC1.5 1-25 μM)
Cc1cncc(NC(=O)N2CCCOc3ccc(-c4cccc(N5CCCC5)c4)nc32)c1 [Compound 610] |  | > 200% | B (EC1.5 1-25 μM)
Cc1ccc(-c2ccc3c(n2)N(C(=O)Nc2cc(C)nc(C)c2)CCCO3)cn1 [Compound 637] |  | > 200% | B (EC1.5 1-25 μM)
O=C(Nc1cc(C(F)(F)F)ccn1)N1CCOc2ccc(-c3cccc(C(F)(F)F)c3)nc21 [Compound 565] |  | ≤ 200% | B (EC1.5 1-25 μM)
CC1(C)CN(C(=O)Nc2cncc(F)c2)c2nc(-c3cccc(Cl)c3)ccc2O1 [Compound 601] |  | > 200% | A (EC1.5<1.0 μM)
O=C(Nc1ncccc1F)N1CCOc2ccc(-c3cccc(C(F)(F)F)c3)nc21 [Compound 568] |  | > 200% | B (EC1.5 1-25 μM)
O=C(Oc1cccnc1)N1CCOc2ccc(-c3cccc(C(F)(F)F)c3)nc21 [Compound 562] |  | ≤ 200% | C (EC1.5>25 μM)
Cc1ccc(-c2ccc3c(n2)N(C(=O)Nc2nc(C)cs2)CCCO3)cn1 [Compound 680] |  | > 200% | B (EC1.5 1-25 μM)
O=C(NC1(c2ccccn2)CC1)N1CCOc2ccc(-c3cccc(C(F)(F)F)c3)nc21 [Compound 633, N-(1-(pyridin-2-yl)cyclopropyl)-6-(3-(trifluoromethyl)phenyl)-2H-pyrido[3,2-b][1,4]oxazine-4(3H)-carboxamide] |  | ≤ 200% | C (EC1.5>25 μM)
Cc1cc(NC(=O)N2CCOc3ccc(-c4c(C)noc4C)nc32)cc(C)n1 [Compound 573] |  | > 200% | B (EC1.5 1-25 μM)
CN1CCN(C(=O)Nc2cncnc2)c2nc(-c3cccc(C(F)(F)F)c3)ccc21 [Compound 536] |  | > 200% | A (EC1.5<1.0 μM)
CN1C(=O)CN(C(=O)Nc2cccnn2)c2nc(-c3cccc(C(F)(F)F)c3)ccc21 [Compound 528] |  | ≤ 200% | C (EC1.5>25 μM)
Cc1cncc(NC(=O)N2CC(C)(C)Oc3ccc(-c4cccc(CN5CCCC5)c4)nc32)c1 [Compound 629, 2,2-dimethyl-N-(5-methylpyridin-3-yl)-6-(3-(pyrrolidin-1-ylmethyl)phenyl)-2H-pyrido[3,2-b][1,4]oxazine-4(3H)-carboxamide] |  | > 200% | B (EC1.5 1-25 μM)
O=C(Oc1cccc(OCC(O)CO)c1)N1CCCc2ccc(-c3cccc(C(F)(F)F)c3)nc21 (stereo not drawn) [Compound 641, 3-(2,3-dihydroxypropoxy)phenyl 7-(3-(trifluoromethyl)phenyl)-3,4-dihydro-1,8-naphthyridine-1(2H)-carboxylate] |  | ≤ 200% | B (EC1.5 1-25 μM)
Cc1csc(NC(=O)N2CCCOc3ccc(-c4cccc(N5CCCC5)c4)nc32)n1 [Compound 628] |  | ≤ 200% | B (EC1.5 1-25 μM)
O=C(Nc1ccncc1)N1CCOc2ccc(-c3cccc(Cl)c3)nc21 [Compound 541, 6-(3-chlorophenyl)-N-(pyridin-4-yl)-2H-pyrido[3,2-b][1,4]oxazine-4(3H)-carboxamide] |  | > 200% | A (EC1.5<1.0 μM)
Cc1cccc(-c2ccc3c(n2)N(C(=O)Nc2ccncn2)CCO3)c1 [Compound 517] |  | > 200% | A (EC1.5<1.0 μM)
Cc1cc(C)c(NC(=O)N2CCOc3ccc(-c4cccc(C(F)(F)F)c4)nc32)cn1 [Compound 553] |  | ≤ 200% | B (EC1.5 1-25 μM)
CC1(C)CN(C(=O)Nc2cccnc2)c2nc(-c3cccc(CN4CCCC4)c3)ccc2O1 [Compound 630] |  | > 200% | B (EC1.5 1-25 μM)
Cc1cc(NC(=O)N2CCCOc3ccc(-c4cccc(F)c4)nc32)ccn1 [Compound 582] |  | > 200% | B (EC1.5 1-25 μM)
CN1CCN(C(=O)NC2CCOC2=O)c2nc(-c3cccc(C(F)(F)F)c3)ccc21 (stereo not drawn) [Compound 540] |  | ≤ 200% | C (EC1.5>25 μM)

Next, values leading:

EC1.5 (concentration giving 1.5-fold activation) | Emax | EC1.5 | Compound
1 to 25 µM | > 200% |  | Cc1cc(OCC(O)CO)nc(NC(=O)N2CCC(C)(C)c3ccc(-c4cccc(C(F)(F)F)c4)nc32)n1 (stereo not drawn) [Compound 844]
> 25 µM | ≤ 200% |  | CCN1C(=O)CCN(C(=O)Nc2cccc(C)n2)c2nc(-c3cccc(Cl)c3)ccc21 [Compound 776]
1 to 25 µM | > 200% |  | O=C(Nc1ccncc1F)N1CCOc2cnc(-c3cccc(C(F)(F)F)c3)nc21 [Compound 716]
< 1 µM | > 200% |  | Cc1cc(NC(=O)N2CCOc3ncc(-c4cccc(C(F)(F)F)c4)nc32)cc(C)n1 [Compound 726]
1 to 25 µM | > 200% |  | CCN1CCCN(C(=O)Nc2ccncc2F)c2nc(-c3cccc(Cl)c3)ccc21 [Compound 808]
 | > 200% | A (EC1.5<1.0 μM) | Cc1cc(-c2cccc(Cl)c2)nc2c1OCCN2C(=O)Nc1ccncc1 [Compound 686]
> 25 µM | ≤ 200% |  | CC1(C)CCN(C(=O)Nc2cccnc2)c2nc(-c3cccc(Cl)c3)ccc2C1=O [Compound 833]
> 25 µM | ≤ 200% |  | CCN1C(=O)CCN(C(=O)Nc2ccncn2)c2nc(-c3cccc(Cl)c3)ccc21 [Compound 775]
1 to 25 µM | > 200% |  | O=C(Nc1ccncc1F)N1CCCCc2ccc(-c3cccc(C(F)(F)F)c3)nc21 [Compound 817]
1 to 25 µM | ≤ 200% |  | Cc1cnccc1NC(=O)N1CCCOc2ccc(-c3cccc(Cl)c3)nc21 [Compound 855]
> 25 µM | ≤ 200% |  | Cc1cccc(NC(=O)N2CCCCc3ccc(-c4cccc(Cl)c4)nc32)n1 [Compound 733]
> 25 µM | ≤ 200% |  | Cn1nccc1NC(=O)N1CCCOc2ccc(-c3cccc(Cl)c3)nc21 [Compound 706]
> 25 µM | ≤ 200% |  | CC1(C)CCN(C(=O)Nc2ccccn2)c2nc(-c3cccc(Cl)c3)ccc2C1=O [Compound 783]
< 1 µM | > 200% |  | Cc1cc(NC(=O)N2CCCC(=O)c3ccc(-c4cccc(C(F)(F)F)c4)nc32)ccn1 [Compound 820]
> 25 µM | ≤ 200% |  | CCN1CCCN(C(=O)Nc2ccccn2)c2nc(-c3cccc(Cl)c3)ccc21 [Compound 790]
1 to 25 µM | > 200% |  | O=C1CCCN(C(=O)Nc2ccncc2)c2nc(-c3cccc(C(F)(F)F)c3)ccc21 [Compound 828]
> 25 µM | ≤ 200% |  | CCN1C(=O)CCN(C(=O)Nc2ccnc(OC)n2)c2nc(-c3cccc(Cl)c3)ccc21 [Compound 792]
< 1 µM | > 200% |  | O=C1CCCN(C(=O)Nc2ccccn2)c2nc(-c3cccc(Cl)c3)ccc21 [Compound 768]
1 to 25 µM | > 200% |  | CCN1CCCN(C(=O)Nc2ccncn2)c2nc(-c3cccc(Cl)c3)ccc21 [Compound 809]
1 to 25 µM | > 200% |  | Cc1cc(NC(=O)N2CCCC(F)(F)c3ccc(-c4cccc(Cl)c4)nc32)ccn1 [Compound 773]
1 to 25 µM | > 200% |  | CCN1CCCN(C(=O)Nc2ccncc2)c2nc(-c3cccc(Cl)c3)ccc21 [Compound 777]
< 1 µM | > 200% |  | O=C(Nc1ccnc(N2CCC2)c1)N1CCOc2ncc(-c3cccc(C(F)(F)F)c3)nc21 [Compound 748]
1 to 25 µM | > 200% |  | O=C(Nc1cccc(OC[C@H](O)CO)n1)N1CCCC(F)(F)c2ccc(-c3cccc(Cl)c3)nc21 [Compound 781]
1 to 25 µM | ≤ 200% |  | O=C1CCCN(C(=O)Nc2ccncc2F)c2nc(-c3cccc(Cl)c3)ccc21 [Compound 767]
1 to 25 µM | ≤ 200% |  | Cc1cc(NC(=O)N2CCCOc3ccc(-c4cccc(Cl)c4)nc32)ncc1F [Compound 863]
1 to 25 µM | > 200% |  | O=C1CCCN(C(=O)Nc2cccnc2)c2nc(-c3cccc(Cl)c3)ccc21 [Compound 747, 2-(3-chlorophenyl)-5-oxo-N-(pyridin-3-yl)-7,8-dihydro-5H-pyrido[2,3-b]azepine-9(6H)-carboxamide]
 | ≤ 200% | C (EC1.5>25 μM) | Cc1ccc(-c2ccc3c(n2)N(C(=O)Nc2ccncn2)CCCO3)cn1 [Compound 681]
